# Results: ChEMBL document CHEMBL1150263, “Combining docking, molecular dynamics and the linear interaction energy method to predict binding modes and affinities for non-nucleoside inhibitors to HIV-1 reverse transcriptase” (J Med Chem, 2008)
# Target: Human immunodeficiency virus type 1 reverse transcriptase (Human immunodeficiency virus 1, UniProt Q72547)
# Assay: Inhibition of HIV1 reverse transcriptase
row,Structure (SMILES),IC50
1,Cc1cc(C)cc(Cc2c(C)c(C)[nH]c(=O)c2N(C)C)c1,0.005 µM
2,CCc1[nH]c(=O)c(N(C)C)c(Cc2cc(C)cc(C)c2)c1C,0.01 µM
3,Cc1cc(C)cc(Cc2cc(C)[nH]c(=O)c2N(C)C)c1,0.398 µM
4,CCCc1c(C)[nH]c(=O)c(N(C)C)c1Cc1cc(C)cc(C)c1,0.05 µM
5,CCc1c(C)[nH]c(=O)c(NNC(=S)Nc2ccccc2)c1Cc1cccc(C)c1,3.16 µM
6,Cc1cc(C)cc(Cc2c3c([nH]c(=O)c2N(C)C)CCCC3)c1,0.01 µM
7,Cc1cc(C)cc(Cc2cc[nH]c(=O)c2N(C)C)c1,7.94 µM
8,Cc1cc(C)cc(Cc2c(C)c(C(C)C)[nH]c(=O)c2N(C)C)c1,0.794 µM
9,CCc1c(C)[nH]c(=O)c(N(C)C)c1Cc1cc(C)cc(C)c1,0.008 µM
10,Cc1cc(C)cc(Cc2c(CC(C)C)c(C)[nH]c(=O)c2N(C)C)c1,0.05 µM
11,CCNC(=S)NNc1c(Cc2cccc(C)c2)c(CC)c(C)[nH]c1=O,25.1 µM
12,CCC1C(Cc2cccc(C)c2)=C(N(C)CCO)C(=O)NC1C (stereo not drawn),0.005 µM
13,CCc1c(C)[nH]c(=O)c(NNC(N)=S)c1Cc1cccc(C)c1,0.316 µM
